The record followed here is ChEMBL document CHEMBL1681780, “A rational approach for the design and synthesis of 1-acetyl-3,5-diaryl-4,5-dihydro(1H)pyrazoles as a new class of potential non-purine xanthine oxidase inhibitors” (Bioorg Med Chem, 2011).

The IC50 is the concentration needed to halve the response being measured.

Some results are limits rather than exact numbers.

The experiment deals with Xanthine dehydrogenase/oxidase (Bos taurus, UniProt P80457). Description: Inhibition of bovine Xanthine oxidase assessed as decrease in uric acid production preincubated […] for 5 mins by spectrophotometry.
Sequence of Xanthine dehydrogenase/oxidase (P80457 whole entry): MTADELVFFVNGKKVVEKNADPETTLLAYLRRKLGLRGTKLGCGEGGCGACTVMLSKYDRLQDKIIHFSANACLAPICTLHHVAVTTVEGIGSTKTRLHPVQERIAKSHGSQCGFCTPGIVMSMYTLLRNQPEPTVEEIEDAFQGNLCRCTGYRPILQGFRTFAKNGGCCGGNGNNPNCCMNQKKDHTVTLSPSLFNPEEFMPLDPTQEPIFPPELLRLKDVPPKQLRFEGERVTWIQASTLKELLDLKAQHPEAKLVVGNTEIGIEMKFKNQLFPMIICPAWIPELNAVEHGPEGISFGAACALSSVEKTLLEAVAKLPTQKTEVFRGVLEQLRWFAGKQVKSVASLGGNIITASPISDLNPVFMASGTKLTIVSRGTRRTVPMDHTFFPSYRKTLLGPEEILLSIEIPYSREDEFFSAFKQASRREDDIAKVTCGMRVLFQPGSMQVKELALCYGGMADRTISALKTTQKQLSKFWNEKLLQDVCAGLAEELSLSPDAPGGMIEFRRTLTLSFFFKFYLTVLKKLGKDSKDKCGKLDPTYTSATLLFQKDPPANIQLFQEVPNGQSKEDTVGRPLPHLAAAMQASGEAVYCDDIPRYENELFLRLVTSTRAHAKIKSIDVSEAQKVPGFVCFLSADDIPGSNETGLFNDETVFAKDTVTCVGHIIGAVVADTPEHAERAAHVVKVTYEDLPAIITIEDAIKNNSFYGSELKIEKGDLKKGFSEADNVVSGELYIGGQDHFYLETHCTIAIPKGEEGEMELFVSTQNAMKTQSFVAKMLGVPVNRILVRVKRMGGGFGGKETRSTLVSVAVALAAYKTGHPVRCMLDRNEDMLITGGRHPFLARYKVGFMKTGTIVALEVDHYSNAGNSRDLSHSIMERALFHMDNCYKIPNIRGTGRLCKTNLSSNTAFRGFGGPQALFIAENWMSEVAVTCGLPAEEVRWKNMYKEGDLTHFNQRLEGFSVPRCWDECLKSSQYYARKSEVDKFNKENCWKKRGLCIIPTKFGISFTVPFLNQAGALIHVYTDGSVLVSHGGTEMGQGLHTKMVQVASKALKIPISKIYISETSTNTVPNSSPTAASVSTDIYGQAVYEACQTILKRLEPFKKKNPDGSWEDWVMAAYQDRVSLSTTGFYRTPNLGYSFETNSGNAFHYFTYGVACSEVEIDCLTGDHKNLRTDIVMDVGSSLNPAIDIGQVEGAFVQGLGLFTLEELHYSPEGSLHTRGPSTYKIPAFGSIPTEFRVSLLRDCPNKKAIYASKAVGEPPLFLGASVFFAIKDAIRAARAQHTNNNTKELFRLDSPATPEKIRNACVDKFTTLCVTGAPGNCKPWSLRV

For `COc1ccc(C2CC(c3ccccc3)=NN2C(C)=O)cc1` (stereo not drawn), the IC50 was found to be 76.2 µM. In the case of `COc1ccc(C2CC(c3ccc(Br)cc3)=NN2C(C)=O)cc1` (stereo not drawn) it was 66.5 µM. In the case of `CC(=O)N1N=C(c2ccc(Br)cc2)CC1c1ccccc1` (stereo not drawn), the IC50 turned out to be 71.3 µM. In the case of `COc1cc(C2CC(c3ccc(Br)cc3)=NN2C(C)=O)cc(OC)c1OC` (stereo not drawn) it was 74.9 µM; in that of `CC(=O)N1N=C(c2ccco2)CC1c1ccc(C)cc1` (stereo not drawn), 19.2 µM; in that of `CC(=O)N1N=C(c2ccco2)CC1c1ccc(Br)cc1` (stereo not drawn), 17.6 µM.

For the compound `CC(=O)N1N=C(c2ccccc2)CC1c1ccc2c(c1)OCO2` (stereo not drawn), the IC50 came to 70.8 µM. In the case of `CC(=O)N1N=C(c2ccco2)CC1c1ccc2ccccc2c1` (stereo not drawn) it was 91.4 µM; in that of `CC(=O)N1N=C(c2ccccc2)CC1c1ccc(N(C)C)cc1` (stereo not drawn), 73.6 µM. In the case of `CC(=O)N1N=C(c2ccccc2)CC1c1cccc(Cl)c1Cl` (stereo not drawn) it was 55.1 µM.

On to `COc1cc(C2CC(c3ccccc3)=NN2C(C)=O)ccc1O` (stereo not drawn), for which the IC50 was found to be 81.2 µM. With `COc1cc(C2CC(c3ccccc3)=NN2C(C)=O)cc(OC)c1OC` (stereo not drawn) the figure was 86.4 µM; with `COc1ccc(C2CC(c3ccc(Br)cc3)=NN2C(C)=O)cc1OC` (stereo not drawn), 64.1 µM; with `CC(=O)N1N=C(c2ccc(Br)cc2)CC1c1cccc(Cl)c1Cl` (stereo not drawn), 51.7 µM. With `CC(=O)N1N=C(c2ccc(Br)cc2)CC1c1ccc2c(c1)OCO2` (stereo not drawn), the IC50 is 66.3 µM. As to `CC(=O)N1N=C(c2cccc([N+](=O)[O-])c2)CC1c1ccccc1` (stereo not drawn), the IC50 came out at 79.1 µM.

As to `COc1ccc(C2CC(c3cccc([N+](=O)[O-])c3)=NN2C(C)=O)cc1` (stereo not drawn), the half-maximal inhibitory concentration (IC50) stood at 73.3 µM. Consider `COc1ccc(C2CC(c3cccc([N+](=O)[O-])c3)=NN2C(C)=O)cc1OC` (stereo not drawn), for which the IC50 amounted to 75.2 µM. `CC(=O)N1N=C(c2cccc([N+](=O)[O-])c2)CC1c1cccc(Cl)c1Cl` (stereo not drawn): the IC50 came out at 58 µM. `CC(=O)N1N=C(c2cccc([N+](=O)[O-])c2)CC1c1ccc2c(c1)OCO2` (stereo not drawn): the half-maximal inhibitory concentration (IC50) was determined as 76.1 µM. With `CC(=O)N1N=C(c2cccc3ccccc23)CC1c1ccccc1` (stereo not drawn) the figure was 41.3 µM. With `CC(=O)N1N=C(c2cccc3ccccc23)CC1c1ccc([N+](=O)[O-])cc1` (stereo not drawn) the figure was 32.2 µM; with `CC(=O)N1N=C(c2cccc3ccccc23)CC1c1cccc([N+](=O)[O-])c1` (stereo not drawn), 36.4 µM. In the case of `COc1ccc(C2CC(c3cccc4ccccc34)=NN2C(C)=O)cc1` (stereo not drawn), the IC50 stood at 43.5 µM.

Regarding `CC(=O)N1N=C(c2cccc3ccccc23)CC1c1cccc(Br)c1` (stereo not drawn), the IC50 was determined as 38.7 µM.

`CC(=O)N1N=C(c2cccc3ccccc23)CC1c1ccccc1[N+](=O)[O-]` (stereo not drawn): the IC50 came to 37.2 µM. In the case of `COc1ccc(OC)c(C2CC(c3cccc4ccccc34)=NN2C(C)=O)c1` (stereo not drawn) it was 44.8 µM; in that of `COc1ccc(C2CC(c3cccc4ccccc34)=NN2C(C)=O)cc1OC` (stereo not drawn), 45.6 µM; in that of `COc1cc(C2CC(c3cccc4ccccc34)=NN2C(C)=O)cc(OC)c1OC` (stereo not drawn), 49.5 µM.

Consider `COc1cc(OC)c(C2CC(c3cccc4ccccc34)=NN2C(C)=O)cc1OC` (stereo not drawn), for which the IC50 came to 46.2 µM. In the case of `COc1cc(C2CC(c3cccc4ccccc34)=NN2C(C)=O)ccc1O` (stereo not drawn) it was 45.7 µM; in that of `CC(=O)N1N=C(c2cccc3ccccc23)CC1c1cccc(Cl)c1Cl` (stereo not drawn), 34.2 µM.

For `CC(=O)N1N=C(c2cccc3ccccc23)CC1c1ccc2c(c1)OCO2` (stereo not drawn), the IC50 came out at 47 µM.

As for `CC(=O)N1N=C(c2cccc3ccccc23)CC1c1ccc2ccccc2c1` (stereo not drawn), the IC50 is above 100 µM. In the case of `CC(=O)N1N=C(c2ccco2)CC1c1ccccc1` (stereo not drawn) it was 26.4 µM; in that of `CC(=O)N1N=C(c2ccco2)CC1c1ccccc1[N+](=O)[O-]` (stereo not drawn), 14.2 µM; in that of `CC(=O)N1N=C(c2ccco2)CC1c1cccc([N+](=O)[O-])c1` (stereo not drawn), 13.1 µM. Regarding `CC(=O)N1N=C(c2ccco2)CC1c1cccc(O)c1` (stereo not drawn), the IC50 was 27.2 µM. In the case of `CC(=O)N1N=C(c2ccco2)CC1c1ccc([N+](=O)[O-])cc1` (stereo not drawn) it was 12.4 µM; in that of `CC(=O)N1N=C(c2ccco2)CC1c1ccc(Cl)cc1` (stereo not drawn), 15.2 µM; in that of `COc1ccc(C2CC(c3ccco3)=NN2C(C)=O)cc1` (stereo not drawn), 21.3 µM. In the case of `CC(=O)N1N=C(c2ccco2)CC1c1ccc(N(C)C)cc1` (stereo not drawn) it was 23 µM; in that of `COc1ccc(OC)c(C2CC(c3ccco3)=NN2C(C)=O)c1` (stereo not drawn), 27.3 µM; in that of `COc1cc(C2CC(c3ccco3)=NN2C(C)=O)cc(OC)c1OC` (stereo not drawn), 28.7 µM. In the case of `COc1ccc(C2CC(c3ccco3)=NN2C(C)=O)cc1OC` (stereo not drawn) it was 29.4 µM. Turning to `COc1cc(OC)c(C2CC(c3ccco3)=NN2C(C)=O)cc1OC` (stereo not drawn), the IC50 came to 30.2 µM. With `COc1cc(C2CC(c3ccco3)=NN2C(C)=O)ccc1O` (stereo not drawn) the figure was 26.8 µM; with `CC(=O)N1N=C(c2ccco2)CC1c1cccc(Cl)c1Cl` (stereo not drawn), 14.8 µM. For the compound `CC(=O)N1N=C(c2ccco2)CC1c1ccc2c(c1)OCO2` (stereo not drawn), the IC50 came out at 28.1 µM. With `CC(=O)N1N=C(c2ccco2)CC1c1ccncc1` (stereo not drawn) the figure was 5.3 µM; with `c1ccc(C2=NNC(c3ccccc3)C2)cc1` (stereo not drawn), above 100 µM; with `CC(=O)N1N=C(c2ccccc2)CC1c1ccccc1` (stereo not drawn), 61.4 µM. For `COc1ccc(C2CC(c3ccccc3)=NN2C(C)=O)cc1OC` (stereo not drawn), the IC50 amounted to 83.7 µM.
